Measured values published in US20240376100A1 (Redona Therapeutics, Inc., priority 2021, published 2024).

Target: PAPD5 enzyme (Homo sapiens, UniProt Q8NDF8)
Test: PAPD5 assay (AMP incorporation onto 3'-terminus of RNA substrate, fluorescence quench)
Type: biochemical
Settings: PAPD5 protein 0.3 nM, ATP 50 μM, 30 minutes preincubation, room temperature; read-out: Potency PAPD5 IC50
Method in brief: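 Enzyme at 0.3 nM with 50 μM ATP, pH 7.3 HEPES buffer, preincubated with compound 30 minutes at room temperature; 5 nM 5′-fluorescein RNA substrate and 20 nM TAMRA quench probe then added. Initial rates from kinetic fluorescein decrease over ~90 minutes; IC50 by four-parameter fit.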

Sequence of PAPD5 enzyme (Q8NDF8 whole entry): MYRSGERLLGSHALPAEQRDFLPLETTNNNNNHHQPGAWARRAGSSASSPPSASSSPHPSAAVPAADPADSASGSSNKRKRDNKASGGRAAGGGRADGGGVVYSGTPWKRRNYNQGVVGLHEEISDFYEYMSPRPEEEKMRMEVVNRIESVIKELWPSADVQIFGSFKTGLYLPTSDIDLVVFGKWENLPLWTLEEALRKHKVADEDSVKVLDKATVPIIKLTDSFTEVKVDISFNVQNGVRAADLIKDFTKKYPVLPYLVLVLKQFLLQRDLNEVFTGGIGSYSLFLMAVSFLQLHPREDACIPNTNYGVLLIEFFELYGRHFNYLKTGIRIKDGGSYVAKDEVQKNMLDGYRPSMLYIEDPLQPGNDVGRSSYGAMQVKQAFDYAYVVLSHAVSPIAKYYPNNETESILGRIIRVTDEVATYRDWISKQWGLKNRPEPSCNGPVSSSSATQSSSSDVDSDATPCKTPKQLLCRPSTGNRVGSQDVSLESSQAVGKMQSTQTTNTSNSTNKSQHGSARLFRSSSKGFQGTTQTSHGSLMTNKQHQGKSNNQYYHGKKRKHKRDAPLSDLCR

Row | Compound | IC50 [µM]
1 | Cc1cc(NC(=O)OC(C)(C)C)ncc1-n1cc(C(=O)O)c(=O)c2cc(Cl)c(-n3cccn3)nc21 [Example 164, 1-(6-((tert-butoxycarbonyl)amino)-4-methylpyridin-3-yl)-6-chloro-4-oxo-7-(1H-pyrazol-1-yl)-1,4-dihydro-1,8-naphthyridine-3-carboxylic acid] | ≤ 1
2 | Cc1cc(NC(=O)OC(C)(C)C)ncc1-n1cc(C(=O)O)c(=O)c2cc(Cl)c(N3Cc4ccccc4C3)nc21 [Example 165, 1-(6-((tert-butoxycarbonyl)amino)-4-methylpyridin-3-yl)-6-chloro-7-(isoindolin-2-yl)-4-oxo-1,4-dihydro-1,8-naphthyridine-3-carboxylic acid] | ≤ 1
3 | Cc1cc(NC(=O)OC(C)(C)C)ncc1-n1cc(C(=O)O)c(=O)c2cc(Cl)c(N3Cc4cccc(F)c4C3)nc21 [Example 166, 1-(6-((tert-butoxycarbonyl)amino)-4-methylpyridin-3-yl)-6-chloro-7-(4-fluoroisoindolin-2-yl)-4-oxo-1,4-dihydro-1,8-naphthyridine-3-carboxylic acid] | ≤ 1
4 | Cc1cc(NC(=O)OC(C)(C)C)ncc1-n1cc(C(=O)O)c(=O)c2cc(Cl)c(N3Cc4ccncc4C3)nc21 [Example 167, 1-(6-((tert-butoxycarbonyl)amino)-4-methylpyridin-3-yl)-6-chloro-7-(1,3-dihydro-2H-pyrrolo[3,4-c]pyridin-2-yl)-4-oxo-1,4-dihydro-1,8-naphthyridine-3-carboxylic acid] | ≤ 1
5 | Cc1cc(NC(=O)OC(C)(C)C)ncc1-n1cc(C(=O)O)c(=O)c2cc(Cl)c(N3CCc4ccccc4C3)nc21 [Example 175, 1-(6-((tert-butoxycarbonyl)amino)-4-methylpyridin-3-yl)-6-chloro-7-(3,4-dihydroisoquinolin-2(1H)-yl)-4-oxo-1,4-dihydro-1,8-naphthyridine-3-carboxylic acid] | ≤ 1
6 | Cc1cc(NC(=O)OC(C)(C)C)ncc1-n1cc(C(=O)O)c(=O)c2cc(Cl)c(N3CCc4cccnc4C3)nc21 [Example 182, 1-(6-((tert-butoxycarbonyl)amino)-4-methylpyridin-3-yl)-6-chloro-7-(5,8-dihydro-1,7-naphthyridin-7(6H)-yl)-4-oxo-1,4-dihydro-1,8-naphthyridine-3-carboxylic acid] | ≤ 1
7 | Cc1cc(NC(=O)OC(C)(C)C)ncc1-n1cc(C(=O)O)c(=O)c2cc(F)c(N3CCc4ccccc4C3)cc21 [Example 184, 1-(6-((tert-butoxycarbonyl)amino)-4-methylpyridin-3-yl)-7-(3,4-dihydroisoquinolin-2(1H)-yl)-6-fluoro-4-oxo-1,4-dihydroquinoline-3-carboxylic acid] | ≤ 1
8 | Cc1cc(N)ncc1-n1cc(C(=O)O)c(=O)c2cc(Cl)c(N3CCc4ncccc4C3)nc21 [Example 186, 1-(6-amino-4-methylpyridin-3-yl)-6-chloro-7-(7,8-dihydro-1,6-naphthyridin-6(5H)-yl)-4-oxo-1,4-dihydro-1,8-naphthyridine-3-carboxylic acid] | ≤ 1
9 | Cc1cc(NC(=O)OC(C)(C)C)ncc1-n1cc(C(=O)O)c(=O)c2cc(Cl)c(N3CCc4ccncc4C3)nc21 [Example 187, 1-(6-((tert-butoxycarbonyl)amino)-4-methylpyridin-3-yl)-6-chloro-7-(3,4-dihydro-2,7-naphthyridin-2(1H)-yl)-4-oxo-1,4-dihydro-1,8-naphthyridine-3-carboxylic acid] | ≤ 1
10 | Cc1cc(N2CC(N(C)C)C2)ncc1-n1cc(C(=O)O)c(=O)c2cc(Cl)c(N3Cc4cccnc4C3)nc21 [Example 188, 6-chloro-7-(5,7-dihydro-6H-pyrrolo[3,4-b]pyridin-6-yl)-1-(6-(3-(dimethylamino)azetidin-1-yl)-4-meth-ylpyridin-3-yl)-4-oxo-1,4-dihydro-1,8-naphthyridine-3-carboxylic acid] | ≤ 1
11 | Cc1cc(N2CCC2)ncc1-n1cc(C(=O)O)c(=O)c2cc(Cl)c(N3Cc4cccnc4C3)cc21 [Example 189, 1-(6-(azetidin-1-yl)-4-methylpyridin-3-yl)-6-chloro-7-(5,7-dihydro-6H-pyrrolo[3,4-b]pyridin-6-yl)-4-oxo-1,4-dihydroquinoline-3-carboxylic acid] | ≤ 1
12 | Cc1cc(N2CCC2)ncc1-n1cc(C(=O)O)c(=O)c2cc(F)c(N3Cc4cccnc4C3)cc21 [Example 190, 1-(6-(azetidin-1-yl)-4-methylpyridin-3-yl)-7-(5,7-dihydro-6H-pyrrolo[3,4-b]pyridin-6-yl)-6-fluoro-4-oxo-1,4-dihydroquinoline-3-carboxylic acid] | ≤ 1
13 | Cc1cc(N(C)CCN(C)C)ncc1-n1cc(C(=O)O)c(=O)c2cc(Cl)c(N3Cc4cccnc4C3)nc21 [Example 192, 6-chloro-7-(5,7-dihydro-6H-pyrrolo[3,4-b]pyridin-6-yl)-1-(6-((2-(dimethylamino)ethyl)(methyl)amino)-4-methylpyridin-3-yl)-4-oxo-1,4-dihydro-1,8-naphthyridine-3-carboxylic acid] | ≤ 1
14 | Nc1ccc(-n2cc(C(=O)O)c(=O)c3cc(Cl)c(N4Cc5ccccc5C4)cc32)cn1 [Example 194, 1-(6-aminopyridin-3-yl)-6-chloro-7-(isoindolin-2-yl)-4-oxo-1,4-dihydroquinoline-3-carboxylic acid] | ≤ 1

The remaining lines, values ahead:

Row | IC50 [µM] | Compound
15 | ≤ 1 | Cc1cc(N)ncc1-n1cc(C(=O)O)c(=O)c2cc(Cl)c(-n3ccc(N(C)C)n3)nc21 [Example 162, 1-(6-amino-4-methylpyridin-3-yl)-6-chloro-7-(3-(dimethylamino)-1H-pyrazol-1-yl)-4-oxo-1,4-dihydro-1,8-naphthyridine-3-carboxylic acid]
16 | ≤ 1 | CNc1cc(C)c(-n2cc(C(=O)O)c(=O)c3cc(Cl)c(N4Cc5cccnc5C4)nc32)cn1 [Example 170, 6-chloro-7-(5,7-dihydro-6H-pyrrolo[3,4-b]pyridin-6-yl)-1-(4-methyl-6-(methylamino)pyridin-3-yl)-4-oxo-1,4-dihydro-1,8-naphthyridine-3-carboxylic acid]
17 | ≤ 1 | CNCCNc1cc(C)c(-n2cc(C(=O)O)c(=O)c3cc(Cl)c(N4Cc5cccnc5C4)nc32)cn1 [Example 171, 6-chloro-7-(5,7-dihydro-6H-pyrrolo[3,4-b]pyridin-6-yl)-1-(4-methyl-6-((2-(methylamino)ethyl)amino)pyridin-3-yl)-4-oxo-1,4-dihydro-1,8-naphthyridine-3-carboxylic acid]
18 | ≤ 1 | Cc1cc(NCCN2CCCCC2)ncc1-n1cc(C(=O)O)c(=O)c2cc(Cl)c(N3Cc4cccnc4C3)nc21 [Example 172, 6-chloro-7-(5,7-dihydro-6H-pyrrolo[3,4-b]pyridin-6-yl)-1-(4-methyl-6-((2-(piperidin-1-yl)ethyl)amino)pyridin-3-yl)-4-oxo-1,4-dihydro-1,8-naphthyridine-3-carboxylic acid]
19 | ≤ 1 | Cc1cc(NC(=O)C2CCC2)ncc1-n1cc(C(=O)O)c(=O)c2cc(Cl)c(N3Cc4cccnc4C3)nc21 [Example 174, 6-chloro-1-(6-(cyclobutanecarboxamido)-4-methylpyridin-3-yl)-7-(5,7-dihydro-6H-pyrrolo[3,4-b]pyridin-6-yl)-4-oxo-1,4-dihydro-1,8-naphthyridine-3-carboxylic acid]
20 | ≤ 1 | Cc1cc(N)ncc1-n1cc(C(=O)O)c(=O)c2cc(Cl)c(N3CCc4ccccc4C3)nc21 [Example 176, 1-(6-amino-4-methylpyridin-3-yl)-6-chloro-7-(3,4-dihydroisoquinolin-2(1H)-yl)-4-oxo-1,4-dihydro-1,8-naphthyridine-3-carboxylic acid]
21 | ≤ 1 | Cc1cc(N(C)CCN2CCCCC2)ncc1-n1cc(C(=O)O)c(=O)c2cc(Cl)c(N3Cc4cccnc4C3)nc21 [Example 177, 6-chloro-7-(5,7-dihydro-6H-pyrrolo[3,4-b]pyridin-6-yl)-1-(4-methyl-6-(methyl(2-(piperidin-1-yl)ethyl)amino)pyridin-3-yl)-4-oxo-1,4-dihydro-1,8-naphthyridine-3-carboxylic acid]
22 | ≤ 1 | COc1cccc2c1CN(c1nc3c(cc1Cl)c(=O)c(C(=O)O)cn3-c1cnc(N)cc1C)C2 [Example 178, 1-(6-amino-4-methylpyridin-3-yl)-6-chloro-7-(4-methoxyisoindolin-2-yl)-4-oxo-1,4-dihydro-1,8-naphthyridine-3-carboxylic acid]
23 | ≤ 1 | Cc1cc(N)ncc1-n1cc(C(=O)O)c(=O)c2cc(Cl)c(N3Cc4cncnc4C3)nc21 [Example 179, 1-(6-amino-4-methylpyridin-3-yl)-6-chloro-7-(5,7-dihydro-6H-pyrrolo[3,4-d]pyrimidin-6-yl)-4-oxo-1,4-dihydro-1,8-naphthyridine-3-carboxylic acid]
24 | ≤ 1 | Cc1cc(N)ncc1-n1cc(C(=O)O)c(=O)c2cc(Cl)c(N3CCc4cccnc4C3)nc21 [Example 180, 1-(6-amino-4-methylpyridin-3-yl)-6-chloro-7-(5,8-dihydro-1,7-naphthyridin-7(6H)-yl)-4-oxo-1,4-dihydro-1,8-naphthyridine-3-carboxylic acid]
25 | ≤ 1 | Cc1cc(N)ncc1-n1cc(C(=O)O)c(=O)c2cc(F)c(N3CCc4ccccc4C3)cc21 [Example 181, 1-(6-amino-4-methylpyridin-3-yl)-7-(3,4-dihydroisoquinolin-2(1H)-yl)-6-fluoro-4-oxo-1,4-dihydroquinoline-3-carboxylic acid]
26 | ≤ 1 | Cc1cc(N2CCC2)ncc1-n1cc(C(=O)O)c(=O)c2cc(F)c(N3Cc4cccnc4C3)nc21 [Example 183, 1-(6-(azetidin-1-yl)-4-methylpyridin-3-yl)-7-(5,7-dihydro-6H-pyrrolo[3,4-b]pyridin-6-yl)-6-fluoro-4-oxo-1,4-dihydro-1,8-naphthyridine-3-carboxylic acid]
27 | ≤ 1 | Cc1cc(N)ncc1-n1cc(C(=O)O)c(=O)c2cc(Cl)c(N3CCc4ccncc4C3)nc21 [Example 185, 1-(6-amino-4-methylpyridin-3-yl)-6-chloro-7-(3,4-dihydro-2,7-naphthyridin-2(1H)-yl)-4-oxo-1,4-dihydro-1,8-naphthyridine-3-carboxylic acid]
